Test results from patent publication US20120264827A1, “SULFANYLAMIDE DERIVATIVES, USES THEREOF AND COMPOSITIONS COMPRISING THEM” (YISSUM RESEARCH DEVELOPMENT COMPANY OF THE HEBREW …, priority 2009, published 2012).
Read-outs that look alike come from different tables or passages of the source.

How the values were obtained:
[1] = tested on: maximal electroshock seizure (MES); assay: Maximal electroshock seizure test (MES), mice, intraperitoneal; type: in vivo; conditions: ip;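 note: adult male CF no. 1 albino mice of 18–25 g, given compound intraperitoneally as a 0.5% methylcellulose suspension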
[2] = tested on: subcutaneous metrazol (pentylenetetrazol) seizure; assay: Subcutaneous metrazol seizure threshold test (scMet), mice, intraperitoneal; type: in vivo; conditions: ip;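 note: adult male CF no. 1 albino mice weighing 18-25 g, dosed intraperitoneally with compounds suspended in 0.5% methylcellulose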
[3] = tested on: maximal electroshock seizure (MES); assay: Maximal electroshock seizure test (MES), rats, oral; conditions: Rattus norvegicus, po, read-out: Anti-MES activity (number of animals protected/number of animals tested);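 note: adult male Sprague-Dawley rats received test compounds by mouth as a suspension in 0.5% methylcellulose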
Description: The tested compounds were suspended in 0.5% methylcellulose and administered (a) intraperitioneally (ip) to adult male CF no. 1 albino mice (18-25 g) in volume of 0.01 mL/g body weight and (b) orally to adult male Sprague-Dawley albino rats (100-150 g) in volume of 0.04 mL per 10 g of body weight.
The TD50 was determined by varying the dose of the tested compounds until four points were established between the dose level that induced no signs of minimal motor impairment in any of the animals and the dose at which all the animals were considered impaired. […] The PIs were calculated by dividing the TD50 by the ED50.

[4] = 30 mg/kg, 0.5 h after administration
[5] = 30 mg/kg, 4 h after administration
[6] = 100 mg/kg, 0.5 h after administration
[7] = 100 mg/kg, 4 h after administration
[8] = 300 mg/kg, 0.5 h after administration
[9] = 300 mg/kg, 4 h after administration

Row | Structure (SMILES) | MES (number of animals protected/number of animals tested) [1, 4] | MES (number of animals protected/number of animals tested) [1, 5] | MES (number of animals protected/number of animals tested) [1, 6] | MES (number of animals protected/number of animals tested) [1, 7] | MES (number of animals protected/number of animals tested) [1, 8] | MES (number of animals protected/number of animals tested) [1, 9] | scMet (number of animals protected/number of animals tested) [2, 4] | scMet (number of animals protected/number of animals tested) [2, 5] | scMet (number of animals protected/number of animals tested) [2, 6] | scMet (number of animals protected/number of animals tested) [2, 7] | scMet (number of animals protected/number of animals tested) [2, 8] | scMet (number of animals protected/number of animals tested) [2, 9] | responders at 30 mg/kg ([3]; 0.5 h) [%] | responders at 30 mg/kg ([3]; 1 h) [%] | responders at 30 mg/kg ([3]; 2 h) [%] | responders at 30 mg/kg ([3]; 4 h) [%] | responders at 30 mg/kg ([3]; […]) [%]
1 | CCC(CC)C(=O)NCCc1ccc(S(N)(=O)=O)cc1 [Compound 29, 2-Ethyl-N-[2-(4-sulfamoyl-phenyl)-ethyl]-butyramide] | 0/1 | 1/1 | 0/3 | 1/3 | 0/1 | 1/1 | 0/1 0/1 0/1 | 0/1 0/1 0/1 | 0/1 0/1 0/1 | 0/1 0/1 0/1 | 0/1 0/1 0/1 | 0/1 0/1 0/1 | 50 | 75 | 25 | 25 | 25
2 | CCCC(C(=O)Nc1ccc(S(N)(=O)=O)cc1)C(C)(C)C (centres unmarked) [Compound 22, 2-tert-Butyl-N-(4-sulfamoyl-phenyl)-pentanamide] | 0/1 | 0/1 | 0/3 | 0/3 | 0/1 | 0/1 | 0/1 0/1 0/1 | 0/1 0/1 0/1 | 0/1 0/1 0/1 | 0/1 0/1 0/1 | 0/1 0/1 0/1 | 0/1 0/1 0/1 |  |  |  |  | 
3 | CCC(C)CC(=O)Nc1ccc(S(N)(=O)=O)cc1 (centres unmarked) [Compound 24, 3-Methyl-N-(4-sulfamoyl-phenyl)-pentanamide] | 0/1 | 0/1 | 0/3 | 0/3 | 0/1 | 0/1 | 0/1 0/1 0/1 | 0/1 0/1 0/1 | 0/1 0/1 0/1 | 0/1 0/1 0/1 | 0/1 0/1 0/1 | 0/1 0/1 0/1 |  |  |  |  | 
4 | CC(C)C(C(=O)Nc1ccc(S(N)(=O)=O)cc1)C(C)(C)C (centres unmarked) [Compound 14, 2-Isopropyl-3,3-dimethyl-N-(4-sulfamoyl-phenyl)-butyramide] | 0/1 | 0/1 | 0/3 | 3/3 | 0/1 | 1/1 | 0/1 0/1 0/1 | 0/1 0/1 0/1 | 0/1 0/1 0/1 | 0/1 0/1 0/1 | 0/1 0/1 0/1 | 0/1 0/1 0/1 |  |  |  |  | 
5 | CCC(C(=O)Nc1ccc(S(N)(=O)=O)cc1)C(C)(C)C (centres unmarked) [Compound 12, 2-Ethyl-3,3-dimethyl-N-(4-sulfamoyl-phenyl)-butyramide] | 0/1 | 0/1 | 0/3 | 1/3 | 0/1 | 1/1 | 0/1 0/1 0/1 | 0/1 0/1 0/1 | 0/1 0/1 0/1 | 0/1 0/1 0/1 | 0/1 0/1 0/1 | 0/1 0/1 0/1 |  |  |  |  | 
6 | CC(C)(C)CC(=O)Nc1ccc(S(N)(=O)=O)cc1 [Compound 15, 3,3-Dimethyl-N-(4-sulfamoyl-phenyl)-butyramide] | 0/1 | 0/1 | 5/7 | 1/3 | 4/5 | 1/1 | 0/1 0/1 0/1 | 0/1 0/1 0/1 | 0/1 0/1 0/1 | 0/1 0/1 0/1 | 0/1 0/1 0/1 | 0/1 0/1 0/1 | 25 | 75 | 100 | 100 | 75
7 | CCCC(CC)C(=O)Nc1ccc(S(N)(=O)=O)cc1 (centres unmarked) [Compound 17, 2-Ethyl-N-(4-sulfamoyl-phenyl)-pentanamide] | 0/1 | 0/1 | 0/3 | 1/3 | 0/1 | 1/1 | 0/1 0/1 0/1 | 0/1 0/1 0/1 | 0/1 0/1 0/1 | 0/1 0/1 0/1 | 0/1 0/1 0/1 | 0/1 0/1 0/1 |  |  |  |  | 
8 | CCC(C)C(=O)Nc1ccc(S(N)(=O)=O)cc1 (centres unmarked) [Compound 10, 2-Methyl-N-(4-sulfamoyl-phenyl)-butyramide] | 1/1 | 1/1 | 3/3 | 3/3 | 1/1 | 1/1 | 0/1 0/1 0/1 | 0/1 0/1 0/1 | 0/1 0/1 0/1 | 0/1 0/1 0/1 | 0/1 0/1 0/1 | 0/1 0/1 0/1 | 50 | 100 | 100 | 100 | 50
9 | CC(C)C(C(=O)Nc1ccc(S(N)(=O)=O)cc1)C(C)C [Compound 13, 2-Isopropyl-3-methyl-N-(4-sulfamoyl-phenyl)-butyramide] | 0/1 | 0/1 | 0/3 | 0/3 | 0/1 | 0/1 | 0/1 0/1 0/1 | 0/1 0/1 0/1 | 0/1 0/1 0/1 | 0/1 0/1 0/1 | 0/1 0/1 0/1 | 0/1 0/1 0/1 | 0 | 0 | 0 | 50 | 0
